Measurements reported in the supplement of paper PMC8882468.

Assays:
Assay in all cases: CTG-3D luminescence at 96 h relative to day-0 seeding control (ratio to day 0); higher = more growth / less cytotoxicity; PDxO 3D drug screen, 96 h, CTG-3D normalised to day-0 seeding control.
HCI-017.E2 = tested on: HCI-017.E2 (organoid from an ER-positive breast cancer xenograft)
HCI-012 = tested on: HCI-012 (organoid from a breast cancer xenograft)
HCI-015 = tested on: HCI-015 (organoid from a triple-negative breast cancer xenograft)
HCI-016 = tested on: HCI-016 (organoid from a triple-negative breast cancer xenograft)
HCI-005.E2 = tested on: HCI-005.E2 (organoid from a breast cancer xenograft with a HER2-positive history)
MDA-MB-231 = tested on: MDA-MB-231

COc1cccc2c1C(=O)c1c(O)c3c(c(O)c1C2=O)C[C@@](O)(C(=O)CO)C[C@@H]3O[C@H]1C[C@H](N)[C@H](O)[C@H](C)O1 [doxorubicin]
CTG-3D luminescence at 96 h
Conditions | 12.5 pM | 0.00025 µM | 0.005 µM | 0.1 µM | 1 µM | 10 µM | 100 µM | 625 fM
HCI-005.E2 | 1.5 | 1.93 | 1.21 | 1.07 | 0.557 | -0.00289 | -0.00667 | 1.71
HCI-017.E2 | 1.87 | 2.06 | 2.07 | 1.89 | 1.2724 | 0.484 | 0.598 | 2.26
MDA-MB-231 | 4.38 | 4.45 | 4.38 | 3.75 | 1.48 | 0.458 | 0.288 | 4.4

CTG-3D luminescence at 96 h
Conditions | 12.5 pM | 0.00025 µM | 0.005 µM | 0.1 µM | 1 µM | 10 µM | 100 µM | 625 fM
HCI-012, days in culture: 143 | 1.78 | 1.93 | 1.8 | 0.35 | 0.0586 | -0.00257 | -0.0149 | 1.91
HCI-012, days in culture: 162 | 2.15 | 2.16 | 2.04 | 0.961 | 0.0655 | 0.00235 | -0.0139 | 3.15
HCI-012, days in culture: 201 | 2.84 | 1.58 | 1.7 | 0.408 | 0.0363 | 0.000335 | -0.0192 | 1.33
HCI-015, days in culture: 172 | 2.4 | 1.39 | 2.21 | 0.657 | 0.0852 | 0.0438 | 0.0135 | 2.35
HCI-015, days in culture: 191 | 2.38 | 1.36 | 1.43 | 0.382 | 0.0711 | 0.0286 | 0.019 | 1.61
HCI-015, days in culture: 218 | 1.76 | 1.38 | 1.98 | 0.575 | 0.0701 | 0.0582 | 0.0222 | 1.86
HCI-016, days in culture: 153 | 2.98 | 1.26 | 2.02 | 0.665 | 0.19 | 0.0767 | 0.0122 | 2.51
HCI-016, days in culture: 172 | 2.04 | 1.45 | 1.73 | 1.29 | 0.194 | 0.0836 | 0.0359 | 1.97
HCI-016, days in culture: 190 | 1.66 | 1.38 | 1.27 | 0.803 | 0.316 | 0.118 | 0.0242 | 1.26
HCI-016, days in culture: 199 | 1.35 | 1.52 | 1.53 | 1.33 | 0.159 | 0.232 | 0.0264 | 1.7
HCI-017.E2, days in culture: 85 | 2.94 | 3.18 | 2.56 | 2.01 | 1.71 | 0.616 | 0.808 | 2.4

C[C@]12CC[C@@H]3c4ccc(O)cc4C[C@@H](CCCCCCCCC[S+]([O-])CCCC(F)(F)C(F)(F)F)[C@H]3[C@@H]1CC[C@@H]2O (stereo partly specified) [fulvestrant]
CTG-3D luminescence at 96 h
Conditions | 12.5 pM | 0.00025 µM | 0.005 µM | 0.1 µM | 1 µM | 10 µM | 100 µM | 625 fM
HCI-005.E2 | 1.53 | 2.5 | 1.79 | 2.34 | 1.61 | 1.5 | 1.34 | 1.72
HCI-017.E2 | 1.94 | 2.16 | 2.05 | 1.92 | 1.53 | 1.4 | 1.55 | 1.88
MDA-MB-231 | 4.61 | 4.53 | 4.7 | 4.58 | 4.8 | 4.81 | 5.18 | 4.69

CTG-3D luminescence at 96 h
Conditions | 12.5 pM | 0.00025 µM | 0.005 µM | 0.1 µM | 1 µM | 10 µM | 100 µM | 625 fM
HCI-012, days in culture: 143 | 2.28 | 2.33 | 2.23 | 2.41 | 2.43 | 2.43 | 2.25 | 1.92
HCI-012, days in culture: 162 | 2.65 | 2.28 | 1.8 | 3.05 | 2.77 | 3.17 | 2.71 | 2.92
HCI-012, days in culture: 201 | 2.77 | 2.3 | 1.52 | 1.85 | 2.21 | 1.48 | 2.1 | 1.53
HCI-015, days in culture: 172 | 2.41 | 1.73 | 2.32 | 0.904 | 2.25 | 1.34 | 1.39 | 3.06
HCI-015, days in culture: 191 | 1.78 | 1.35 | 1.29 | 1.06 | 1.56 | 1.23 | 1.35 | 1.56
HCI-015, days in culture: 218 | 2.19 | 1.3 | 2.13 | 1.72 | 1.77 | 2.1 | 1.76 | 2.24
HCI-016, days in culture: 153 | 2.93 | 2.2 | 2.24 | 2.05 | 2.08 | 2.62 | 1.86 | 2.61
HCI-016, days in culture: 172 | 2.46 | 1.77 | 1.97 | 1.54 | 1.72 | 1.14 | 1.63 | 1.6
HCI-016, days in culture: 190 | 1.79 | 1.54 | 1.85 | 1.28 | 1.3 | 0.96 | 1.07 | 1.14
HCI-016, days in culture: 199 | 1.92 | 2.05 | 1.9 | 1.67 | 2.19 | 1.62 | 1.44 | 2.07
HCI-017.E2, days in culture: 85 | 2.84 | 3.05 | 2.96 | 2.18 | 1.78 | 1.41 | 1.89 | 2.52

Nc1ccn([C@@H]2O[C@H](CO)[C@@H](O)C2(F)F)c(=O)n1 [gemcitabine]
CTG-3D luminescence at 96 h
Conditions | 12.5 pM | 0.00025 µM | 0.005 µM | 0.1 µM | 1 µM | 10 µM | 100 µM | 625 fM
HCI-005.E2 | 1.6 | 1.96 | 1.71 | 0.511 | 0.224 | 0.406 | 0.438 | 1.65
HCI-017.E2 | 2.08 | 2.07 | 1.97 | 1.88 | 1.74 | 1.54 | 1.67 | 2.23
MDA-MB-231 | 4.42 | 4.37 | 4.14 | 2.62 | 2 | 1.11 | 0.848 | 4.44

CTG-3D luminescence at 96 h
Conditions | 12.5 pM | 0.00025 µM | 0.005 µM | 0.1 µM | 1 µM | 10 µM | 100 µM | 625 fM
HCI-012, days in culture: 143 | 2.04 | 2.09 | 1.86 | 0.136 | 0.104 | 0.118 | 0.054 | 1.61
HCI-012, days in culture: 162 | 2.63 | 2.42 | 1.38 | 0.146 | 0.113 | 0.113 | 0.0256 | 2.7
HCI-012, days in culture: 201 | 2.68 | 1.42 | 1.5 | 0.0613 | 0.383 | 0.0794 | 0.0454 | 1.69
HCI-015, days in culture: 172 | 2.22 | 1.3 | 1.95 | 0.109 | 0.123 | 0.136 | 0.152 | 2.75
HCI-015, days in culture: 191 | 2.28 | 1.52 | 0.975 | 0.116 | 0.114 | 0.105 | 0.109 | 1.5
HCI-015, days in culture: 218 | 1.86 | 1.48 | 0.887 | 0.138 | 0.105 | 0.107 | 0.0645 | 1.8
HCI-016, days in culture: 153 | 2.99 | 1.91 | 2.52 | 0.96 | 0.509 | 0.286 | 0.0753 | 2.4
HCI-016, days in culture: 172 | 1.95 | 1.97 | 1.64 | 0.366 | 0.257 | 0.0907 | 0.0466 | 1.66
HCI-016, days in culture: 190 | 1.61 | 1.34 | 1.52 | 0.261 | 0.268 | 0.122 | 0.0539 | 1.21
HCI-016, days in culture: 199 | 1.57 | 1.28 | 1.3 | 0.174 | 0.16 | 0.112 | 0.0387 | 1.49
HCI-017.E2, days in culture: 85 | 2.64 | 2.91 | 2.88 | 1.88 | 1.87 | 1.29 | 1.7 | 2.11
